From BindingDB's records for doi:10.1021/acs.jmedchem.6b00596 (University of Connecticut Health Center, 2016)

Molecular target: Ubiquitin carboxyl-terminal hydrolase 1/WD repeat-containing protein 48 (Homo sapiens, UniProt O94782+Q8TAF3)
Experiment: Inhibition of human USP1/UAF1 complex using Ub-Rho as substrate by qHTS assay

Sequence of Ubiquitin carboxyl-terminal hydrolase 1/WD repeat-containing protein 48 (O94782 whole entry, looked up): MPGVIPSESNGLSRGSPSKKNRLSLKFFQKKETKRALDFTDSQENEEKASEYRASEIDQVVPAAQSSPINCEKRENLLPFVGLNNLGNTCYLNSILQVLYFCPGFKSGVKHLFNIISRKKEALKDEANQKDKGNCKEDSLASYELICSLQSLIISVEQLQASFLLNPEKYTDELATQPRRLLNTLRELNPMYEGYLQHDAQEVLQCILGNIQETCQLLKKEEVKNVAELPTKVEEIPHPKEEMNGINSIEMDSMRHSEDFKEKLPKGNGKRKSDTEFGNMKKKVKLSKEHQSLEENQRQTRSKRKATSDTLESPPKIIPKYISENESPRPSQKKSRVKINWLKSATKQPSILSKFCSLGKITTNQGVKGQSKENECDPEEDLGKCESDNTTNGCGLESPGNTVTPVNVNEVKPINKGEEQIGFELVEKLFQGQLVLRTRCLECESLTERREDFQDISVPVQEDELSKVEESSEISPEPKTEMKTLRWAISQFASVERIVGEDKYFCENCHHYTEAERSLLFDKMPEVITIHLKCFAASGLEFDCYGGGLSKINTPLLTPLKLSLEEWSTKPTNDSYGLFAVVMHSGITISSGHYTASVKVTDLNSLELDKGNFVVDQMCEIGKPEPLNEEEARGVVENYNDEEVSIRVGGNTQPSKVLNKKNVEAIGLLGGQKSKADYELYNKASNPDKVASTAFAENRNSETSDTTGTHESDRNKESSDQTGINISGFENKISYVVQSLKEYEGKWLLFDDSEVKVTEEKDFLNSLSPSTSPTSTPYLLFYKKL
Sequence of Ubiquitin carboxyl-terminal hydrolase 1/WD repeat-containing protein 48 (Q8TAF3 whole entry, looked up): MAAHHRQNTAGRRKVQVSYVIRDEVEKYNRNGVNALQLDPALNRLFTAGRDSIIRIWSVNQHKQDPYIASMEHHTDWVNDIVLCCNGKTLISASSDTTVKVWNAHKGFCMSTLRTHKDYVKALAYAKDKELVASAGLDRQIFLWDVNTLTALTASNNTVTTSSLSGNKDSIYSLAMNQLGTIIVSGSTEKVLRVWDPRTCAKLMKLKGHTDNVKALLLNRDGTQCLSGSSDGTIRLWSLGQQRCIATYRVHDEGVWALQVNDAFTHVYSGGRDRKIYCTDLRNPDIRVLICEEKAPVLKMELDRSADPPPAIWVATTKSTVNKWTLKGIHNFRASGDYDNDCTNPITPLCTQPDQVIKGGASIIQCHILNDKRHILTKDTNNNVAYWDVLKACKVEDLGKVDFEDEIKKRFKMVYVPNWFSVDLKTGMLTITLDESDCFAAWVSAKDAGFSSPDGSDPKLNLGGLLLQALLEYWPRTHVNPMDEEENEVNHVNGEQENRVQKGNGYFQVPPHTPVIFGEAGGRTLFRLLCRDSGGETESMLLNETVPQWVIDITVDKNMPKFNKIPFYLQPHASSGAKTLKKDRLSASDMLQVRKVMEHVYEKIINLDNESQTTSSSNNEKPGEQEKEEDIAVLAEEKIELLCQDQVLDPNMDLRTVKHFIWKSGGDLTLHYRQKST

IC50: 7 µM
SMILES: OCCN1CCN(CC/C=C2/c3ccccc3Sc3ccc(C(F)(F)F)cc32)CC1 [Fluphenthixol]
